Results taken from patent US20100075334A1, “METHYLATION BIOMARKER FOR EARLY DETECTION OF GASTRIC CANCER” (priority 2007, published 2010).

Tested on: gastric cancer cell lines, SNU001, SNU601, and SNU668
Assay: Reactivation analysis of silenced genes by drug treatment (RT-PCR)
Format: cell-based, human
Details: for number of selected genes restored (summary): 5-aza and/or TSA treatment, of 26 epigenetic targets; for number of selected genes restored in the corresponding inactivated cells: after 5-Aza-dC and/or TSA treatment, gene-specific or cell-specific mode
Protocol: To examine the correspondence between NotI-methylation and gene silencing at the neighboring region of the NotI site, RT-PCR analysis was performed for each selected gene with RNA of gastric cancer cell line. Reverse transcription using 5 μg of DNase-treated RNA was done using Superscript II reverse transcriptase (Invitrogen) in a reaction volume of 20 μL. One μL of the reverse transcription reaction was used for amplification using Platinum Taq DNA polymerase (Invitrogen). Amplification was done as follows: denaturation at 94° C. for 30 s, annealing at a primer specific annealing temperature for 30 s and extension at 72° C. for 45 s. All reactions were performed on a GeneAmp PCR System 9700 (Perkin-Elmer Corp.). Five μL of the PCR product were run on a 0.8% agarose gel and visualized by EtBr staining. GAPDH gene was used as a control for comparison of the amount of reverse transcribed template in each sample.
Three gastric cancer cell lines, SNU001, SNU601, and SNU668, were treated with 5-aza-2′-deoxycytidine (5-Aza-dC; Sigma) as a demethylating agent and 5-Aza-dC and trichostatin A (TSA; Sigma) as a HDAC inhibitor to examine the restoring of selected genes in those cells. Each cell was plated at a density of 1×10^5 cells/100-mm dish and cultures for 24 h, followed by 72 h culture with 1 μM 5-Aza-dC. Other cells were also followed by 24 h culture with 250 nM TSA or 72 h 5-Aza-dC-treated cells for another 24 h. RNA was prepared and RT-PCR analysis was then performed using gene-specific primer set as described above. GAPDH gene was also used as a control.
For the selected 22 genes, reactivation analysis was examined in three gastric cancer cell lines by 5-Aza-dC and/or TSA treatment.

SMILES	number of selected genes restored (summary)	number of selected genes restored in the corresponding inactivated cells	restoration of expression of POPDC3, NACM2, PRKD1 and AMPD3 (three gastric cancer cell lines, 1 μM 5-Aza-dC 72 h, RT-PCR, restored only by 5-Aza-dC)
Nc1ncn([C@H]2C[C@H](O)[C@@H](CO)O2)c(=O)n1 [5-Aza-dC, 5-aza-2′-deoxycytidine]	23 of 26	22 genes	restored in two or three corresponding inactivated cells
CC(/C=C/C(=O)NO)=C\[C@@H](C)C(=O)c1ccc(N(C)C)cc1 [TSA, trichostatin A]	23 of 26	22 genes	
